Experimental data: patent US9493411B2 (AbbVie Inc., priority 2013, dated 2016)

Key:
BRD4 (BDI_K57-E168) = target: T1, BRD4 (BDI_K57-E168) (Homo sapiens, UniProt O60885); assay: TR-FRET bromodomain binding assay, BRD4 first bromodomain; conditions: His-tagged BD1, Alexa647-labeled probe 100 nM; Ki calculated from IC50
T1 construct: BD1: amino acids K57-E168; made in house
Summary of the method: (§1)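 Read-out: TR-FRET ratio after 1 h at room temperature, normalized to controls and fitted for IC50, then converted to Ki. Reaction held 8 nM His-tagged domain, 1 nM Eu-anti-His antibody, Alexa647 probe (BDI 100 nM; BDII 30 nM) and test compound in 2% DMSO.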

BRD4 (BDII_E352-M457) = target: T2, BRD4 (BDII_E352-M457) (Homo sapiens, UniProt O60885); assay: TR-FRET bromodomain binding assay, BRD4 second bromodomain; conditions: His-tagged BD2, Alexa647-labeled probe 30 nM; Ki calculated from IC50
T2 construct: made in house
Summary of the method: as §1

[1] = tested on: breast cancer cell line MX-1; assay: MX-1 cell line proliferation assay; assay type: cell-based; conditions: Homo sapiens, MX1, 72 h, MX-1 cells, 3-day proliferation assay, Cell Titer Glo; read-out: Cellular proliferation: EC50
Protocol: The impact of compounds of the Examples on cancer cell proliferation was determined using the breast cancer cell line MX-1 (ATCC) in a 3-day proliferation assay and the data are reported in Table 1. MX-1 cells were maintained in RPMI 1640 medium (Sigma) supplemented with 10% FBS at 37° C. and an atmosphere of 5% CO2. For compound testing, MX-1 cells were plated in 96-well black bottom plates at a density of 5000 cells/well in 90 μL of culture media and incubated at 37° overnight to allow cell adhesion and spreading. Compound dilution series were prepared in DMSO via a 3-fold serial dilution from 3 mM to 0.1 μM. The DMSO dilution series were then diluted 1:100 in phosphate buffered saline, and 10 μL of the resulted solution were added to the appropriate wells of the MX-1 cell plate. The final compound concentrations in the wells were 3, 1, 0.3, 0.1, 0.03, 0.01, 0.003, 0.001, 0.0003 and 0.0001 μM.
Luminescence readings from the Cell Titer Glo assay were normalized to the DMSO treated cells and analyzed using the GraphPad Prism software with sigmoidal curve fitting to obtain EC50s. The minimum significant ratio (MSR) was determined to evaluate assay reproducibility (Eastwood et al., (2006) J Biomol Screen, 11: 253-261).

With `Cc1[nH]c(-c2ccccc2NC2CCOC2)cc1C(N)=O` (stereo not drawn) [Example 63, 2-methyl-5-[2-(tetrahydrofuran-3-ylamino)phenyl]-1H-pyrrole-3-carboxamide] the Ki (BRD4 (BDI_K57-E168)) was 352 nM, the Ki (BRD4 (BDII_E352-M457)) was 6900 nM and the EC50 [1] was 2460 nM.
`Cc1[nH]c(-c2ccccc2NC2CCSCC2)cc1C(N)=O` [Example 68, 2-methyl-5-[2-(tetrahydro-2H-thiopyran-4-ylamino)phenyl]-1H-pyrrole-3-carboxamide] gave a Ki (BRD4 (BDI_K57-E168)) of 151 nM, a Ki (BRD4 (BDII_E352-M457)) of 2590 nM and an EC50 [1] of 1130 nM.
With `COC(=O)CCc1ccccc1Oc1ccccc1-c1cc(C(N)=O)c(C)[nH]1` [Example 133, methyl 3-{2-[2-(4-carbamoyl-5-methyl-1H-pyrrol-2-yl)phenoxy]phenyl}propanoate] the Ki (BRD4 (BDI_K57-E168)) was 310 nM, the Ki (BRD4 (BDII_E352-M457)) was 576 nM and the EC50 [1] was 1830 nM.
`Cc1[nH]c(-c2ccccc2NC(=O)Cc2ccccc2)cc1C(N)=O` [Example 76, 2-methyl-5-{2-[(phenylacetyl)amino]phenyl}-1H-pyrrole-3-carboxamide] gave a Ki (BRD4 (BDI_K57-E168)) of 4500 nM, a Ki (BRD4 (BDII_E352-M457)) of 2980 nM and an EC50 [1] of 13400 nM.
With `Cc1[nH]c(-c2ccccc2NCC2CCNC2)cc1C(N)=O` (stereo not drawn) [Example 42, 2-methyl-5-{2-[(pyrrolidin-3-ylmethyl)amino]phenyl}-1H-pyrrole-3-carboxamide] the Ki (BRD4 (BDI_K57-E168)) was 446 nM, the Ki (BRD4 (BDII_E352-M457)) was 14500 nM and the EC50 [1] was greater than 10000 nM.
Work on `Cc1[nH]c(-c2ccccc2NC2CCc3ccccc32)cc1C(N)=O` (stereo not drawn) [Example 67, 5-[2-(2,3-dihydro-1H-inden-1-ylamino)phenyl]-2-methyl-1H-pyrrole-3-carboxamide] yielded a Ki (BRD4 (BDI_K57-E168)) of 452 nM, a Ki (BRD4 (BDII_E352-M457)) of 810 nM and an EC50 [1] greater than 3000 nM.
With `COc1cc(-c2cc(C(N)=O)c(C)[nH]2)cc(OC)c1OC` [Example 149, 2-methyl-5-(3,4,5-trimethoxyphenyl)-1H-pyrrole-3-carboxamide] the Ki (BRD4 (BDI_K57-E168)) was 884 nM, the Ki (BRD4 (BDII_E352-M457)) was 3880 nM and the EC50 [1] was 2320 nM.
Work on `Cc1[nH]c(-c2cc(CCO)ccc2OCc2ccccc2)cc1C(N)=O` [Example 167, 5-[2-(benzyloxy)-5-(2-hydroxyethyl)phenyl]-2-methyl-1H-pyrrole-3-carboxamide] yielded a Ki (BRD4 (BDI_K57-E168)) of 627 nM, a Ki (BRD4 (BDII_E352-M457)) of 2250 nM and an EC50 [1] greater than 3000 nM.
`Cc1[nH]c(-c2ccc(-c3ccc(CN4CCN(C)CC4)cc3)cc2)cc1C(N)=O` [Example 97, 2-methyl-5-{4′-[(4-methylpiperazin-1-yl)methyl]biphenyl-4-yl}-1H-pyrrole-3-carboxamide] was tested, and the Ki (BRD4 (BDI_K57-E168)) was 1410 nM, the Ki (BRD4 (BDII_E352-M457)) was 1870 nM and the EC50 [1] was 15300 nM.
`Cc1[nH]c(-c2ccccc2NC2CCCCC2)cc1C(N)=O` [Example 62, 5-[2-(cyclohexylamino)phenyl]-2-methyl-1H-pyrrole-3-carboxamide] was tested, and the Ki (BRD4 (BDI_K57-E168)) was 197 nM, the Ki (BRD4 (BDII_E352-M457)) was 1240 nM and the EC50 [1] was 520 nM.
Work on `Cc1[nH]c(-c2ccccc2Oc2ccc(N)cc2)cc1C(N)=O` [Example 119, 5-[2-(4-aminophenoxy)phenyl]-2-methyl-1H-pyrrole-3-carboxamide] yielded a Ki (BRD4 (BDI_K57-E168)) of 249 nM, a Ki (BRD4 (BDII_E352-M457)) of 1100 nM and an EC50 [1] of 998 nM.
For `Cc1[nH]c(-c2ccccc2Oc2cccc3cnccc23)cc1C(N)=O` [Example 125, 5-[2-(isoquinolin-5-yloxy)phenyl]-2-methyl-1H-pyrrole-3-carboxamide], the Ki (BRD4 (BDI_K57-E168)) was 180 nM, the Ki (BRD4 (BDII_E352-M457)) was 192 nM and the EC50 [1] was 1600 nM.
For `Cc1[nH]c(-c2ccccc2NS(=O)(=O)Cc2ccccc2)cc1C(N)=O` [Example 83, 5-{2-[(benzylsulfonyl)amino]phenyl}-2-methyl-1H-pyrrole-3-carboxamide], the Ki (BRD4 (BDI_K57-E168)) was 237 nM, the Ki (BRD4 (BDII_E352-M457)) was 653 nM and the EC50 [1] was greater than 3000 nM.
In the case of `Cc1[nH]c(-c2ccccc2Oc2ccccc2F)cc1C(N)=O` [Example 117, 5-[2-(2-fluorophenoxy)phenyl]-2-methyl-1H-pyrrole-3-carboxamide], the Ki (BRD4 (BDI_K57-E168)) is reported as 391 nM, the Ki (BRD4 (BDII_E352-M457)) is reported as 725 nM and the EC50 [1] is reported as 1350 nM.
In the case of `Cc1[nH]c(-c2ccccc2Oc2cccc(C#N)c2)cc1C(N)=O` [Example 127, 5-[2-(3-cyanophenoxy)phenyl]-2-methyl-1H-pyrrole-3-carboxamide], the Ki (BRD4 (BDI_K57-E168)) is reported as 233 nM, the Ki (BRD4 (BDII_E352-M457)) is reported as 1040 nM and the EC50 [1] is reported as 2000 nM.
With `Cc1[nH]c(-c2ccccc2Oc2ccc3[nH]ccc3c2)cc1C(N)=O` [Example 130, 5-[2-(1H-indol-5-yloxy)phenyl]-2-methyl-1H-pyrrole-3-carboxamide] the Ki (BRD4 (BDI_K57-E168)) was 471 nM, the Ki (BRD4 (BDII_E352-M457)) was 1220 nM and the EC50 [1] was 1770 nM.
`Cc1[nH]c(-c2ccccc2Oc2ccc3cc[nH]c3c2)cc1C(N)=O` [Example 118, 5-[2-(1H-indol-6-yloxy)phenyl]-2-methyl-1H-pyrrole-3-carboxamide] showed a Ki (BRD4 (BDI_K57-E168)) of 529 nM, a Ki (BRD4 (BDII_E352-M457)) of 1730 nM and an EC50 [1] of 1320 nM.
With `COc1ccc(Oc2ccccc2-c2cc(C(N)=O)c(C)[nH]2)cc1` [Example 137, 5-[2-(4-methoxyphenoxy)phenyl]-2-methyl-1H-pyrrole-3-carboxamide] the Ki (BRD4 (BDI_K57-E168)) was 218 nM, the Ki (BRD4 (BDII_E352-M457)) was 1020 nM and the EC50 [1] was 4880 nM.
Work on `Cc1[nH]c(-c2ccccc2-n2cnc3cc(O)ccc32)cc1C(N)=O` [Example 146, 5-[2-(5-hydroxy-1H-benzimidazol-1-yl)phenyl]-2-methyl-1H-pyrrole-3-carboxamide] yielded a Ki (BRD4 (BDI_K57-E168)) of 74.9 nM, a Ki (BRD4 (BDII_E352-M457)) of 326 nM and an EC50 [1] of 1610 nM.
For `Cc1[nH]c(-c2ccccc2NCc2ccc(O)cc2)cc1C(N)=O` [Example 54, 5-{2-[(4-hydroxybenzyl)amino]phenyl}-2-methyl-1H-pyrrole-3-carboxamide], the Ki (BRD4 (BDI_K57-E168)) was 585 nM, the Ki (BRD4 (BDII_E352-M457)) was 3880 nM and the EC50 [1] was 190 nM.
`Cc1[nH]c(-c2ccccc2NCc2cccc(N)c2)cc1C(N)=O` [Example 53, 5-{2-[(3-aminobenzyl)amino]phenyl}-2-methyl-1H-pyrrole-3-carboxamide] showed a Ki (BRD4 (BDI_K57-E168)) of 659 nM, a Ki (BRD4 (BDII_E352-M457)) of 3190 nM and an EC50 [1] of 4170 nM.
`Cc1[nH]c(-c2ccccc2NC[C@H]2CC[C@H](NC(=O)OC(C)(C)C)CC2)cc1C(N)=O` [Example 46, tert-butyl [trans-4-({[2-(4-carbamoyl-5-methyl-1H-pyrrol-2-yl)phenyl]amino}methyl)cyclohexyl]carbamate] gave a Ki (BRD4 (BDI_K57-E168)) of 426 nM, a Ki (BRD4 (BDII_E352-M457)) of 16300 nM and an EC50 [1] of 4950 nM.
In the case of `Cc1[nH]c(-c2ccccc2-n2cnc3ccc(O)cc32)cc1C(N)=O` [Example 145, 5-[2-(6-hydroxy-1H-benzimidazol-1-yl)phenyl]-2-methyl-1H-pyrrole-3-carboxamide], the Ki (BRD4 (BDI_K57-E168)) is reported as 1190 nM, the Ki (BRD4 (BDII_E352-M457)) is reported as 3920 nM and the EC50 [1] is reported as greater than 10000 nM.
`Cc1[nH]c(-c2ccccc2Oc2ccc(F)cc2)cc1C(N)=O` [Example 141, 5-[2-(4-fluorophenoxy)phenyl]-2-methyl-1H-pyrrole-3-carboxamide] gave a Ki (BRD4 (BDI_K57-E168)) of 123 nM, a Ki (BRD4 (BDII_E352-M457)) of 1600 nM and an EC50 [1] of 2420 nM.
In the case of `Cc1[nH]c(-c2ccccc2NS(=O)(=O)C2CCCC2)cc1C(N)=O` [Example 87, 5-{2-[(cyclopentylsulfonyl)amino]phenyl}-2-methyl-1H-pyrrole-3-carboxamide], the Ki (BRD4 (BDI_K57-E168)) is reported as 366 nM, the Ki (BRD4 (BDII_E352-M457)) is reported as 465 nM and the EC50 [1] is reported as greater than 3000 nM.
`Cc1[nH]c(-c2ccccc2NCCC2CCNCC2)cc1C(N)=O` [Example 47, 2-methyl-5-(2-{[2-(piperidin-4-yl)ethyl]amino}phenyl)-1H-pyrrole-3-carboxamide] gave a Ki (BRD4 (BDI_K57-E168)) of 498 nM, a Ki (BRD4 (BDII_E352-M457)) of 7830 nM and an EC50 [1] greater than 10000 nM.
With `Cc1[nH]c(-c2ccccc2NCC2CCOC2)cc1C(N)=O` (single isomer, unassigned) [Example 18] the Ki (BRD4 (BDI_K57-E168)) was 183 nM, the Ki (BRD4 (BDII_E352-M457)) was 2340 nM and the EC50 [1] was 2850 nM.
`Cc1[nH]c(-c2ccccc2Oc2cccnc2)cc1C(N)=O` [Example 126, 2-methyl-5-[2-(pyridin-3-yloxy)phenyl]-1H-pyrrole-3-carboxamide] gave a Ki (BRD4 (BDI_K57-E168)) of 83.4 nM, a Ki (BRD4 (BDII_E352-M457)) of 1140 nM and an EC50 [1] of 1300 nM.
`COC/C=C/c1ccc(-c2cc(C(N)=O)c(C)[nH]2)cc1` [Example 107, 5-{4-[(1E)-3-methoxyprop-1-en-1-yl]phenyl}-2-methyl-1H-pyrrole-3-carboxamide] was tested, and the Ki (BRD4 (BDI_K57-E168)) was 4020 nM, the Ki (BRD4 (BDII_E352-M457)) was 1980 nM and the EC50 [1] was 8600 nM.
Molecule `Cc1[nH]c(-c2ccccc2NS(=O)(=O)Cc2ccc(Cl)cc2)cc1C(N)=O` [Example 85, 5-(2-{[(4-chlorobenzyl)sulfonyl]amino}phenyl)-2-methyl-1H-pyrrole-3-carboxamide] has a Ki (BRD4 (BDI_K57-E168)) of 1850 nM, a Ki (BRD4 (BDII_E352-M457)) of 13200 nM and an EC50 [1] greater than 3000 nM.
`Cc1[nH]c(-c2ccccc2Oc2cccc(Cl)c2)cc1C(N)=O` [Example 142, 5-[2-(3-chlorophenoxy)phenyl]-2-methyl-1H-pyrrole-3-carboxamide] gave a Ki (BRD4 (BDI_K57-E168)) of 357 nM, a Ki (BRD4 (BDII_E352-M457)) of 775 nM and an EC50 [1] of 2130 nM.
